Test results from PubChem BioAssay (NCI).
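Growth conditions: 96-well plates. Treatment: test compound, 48 hours, 5 concentrations. Analysis: linear interpolation between bracketing concentrations; unreached endpoints set to highest concentration. TGI denotes the concentration required for complete inhibition of growth.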

What was measured:
Test in all cases: NCI tumour cell line growth inhibition, 48 h
A549 NSCLC = test system: A549 NSCLC
HCT-116 colon = test system: HCT-116 colon
RXF 393 renal = test system: RXF 393 renal
DU-145 prostate = test system: DU-145 prostate
UACC-257 melanoma = test system: UACC-257 melanoma
MOLT-4 leukemia = test system: MOLT-4 leukemia
NCI-H522 lung = test system: NCI-H522 lung
UO-31 renal = test system: UO-31 renal
OVCAR-4 ovarian = test system: OVCAR-4 ovarian
KM12 colon = test system: KM12 colon
BT-549 breast = test system: BT-549 breast
HCC-2998 colon = test system: HCC-2998 colon
K-562 leukemia = test system: K-562 leukemia
SF-295 CNS = test system: SF-295 CNS
NCI-H23 lung = test system: NCI-H23 lung
HCT-15 colon = test system: HCT-15 colon
HOP-62 NSCLC = test system: HOP-62 NSCLC
M14 melanoma = test system: M14 melanoma
TK-10 renal = test system: TK-10 renal
SF-268 CNS = test system: SF-268 CNS
MCF7 breast = test system: MCF7 breast
HL-60(TB) leukemia = test system: HL-60(TB) leukemia
RPMI-8226 leukemia = test system: RPMI-8226 leukemia
LOX IMVI melanoma = test system: LOX IMVI melanoma
EKVX NSCLC = test system: EKVX NSCLC
ACHN renal = test system: ACHN renal
SR leukemia = test system: SR leukemia
OVCAR-3 ovarian = test system: OVCAR-3 ovarian
HT29 colon = test system: HT29 colon
NCI/ADR-RES ovarian = test system: NCI/ADR-RES ovarian
U251 CNS = test system: U251 CNS
MDA-MB-231 breast = test system: MDA-MB-231 breast
OVCAR-8 ovarian = test system: OVCAR-8 ovarian
NCI-H460 lung = test system: NCI-H460 lung
NCI-H226 lung = test system: NCI-H226 lung
CAKI-1 renal = test system: CAKI-1 renal
MDA-N = test system: MDA-N
OVCAR-5 ovarian = test system: OVCAR-5 ovarian
SK-MEL-2 melanoma = test system: SK-MEL-2 melanoma
MALME-3M melanoma = test system: MALME-3M melanoma
T-47D breast = test system: T-47D breast
SNB-19 CNS = test system: SNB-19 CNS
CCRF-CEM leukemia = test system: CCRF-CEM leukemia
SW-620 colon = test system: SW-620 colon
SN12C renal = test system: SN12C renal
HOP-92 NSCLC = test system: HOP-92 NSCLC
PC-3 prostate = test system: PC-3 prostate
786-0 renal = test system: 786-0 renal
MDA-MB-435 = test system: MDA-MB-435
COLO 205 colon = test system: COLO 205 colon
SNB-75 CNS = test system: SNB-75 CNS
IGROV1 ovarian = test system: IGROV1 ovarian
SK-OV-3 ovarian = test system: SK-OV-3 ovarian
UACC-62 melanoma = test system: UACC-62 melanoma
A498 renal = test system: A498 renal
SK-MEL-5 melanoma = test system: SK-MEL-5 melanoma
SK-MEL-28 melanoma = test system: SK-MEL-28 melanoma

CO/C(=N\N=C\c1ccccc1F)c1ccncc1
TGI (A549 NSCLC): > 10 µM
TGI (HCT-116 colon): > 10 µM
TGI (RXF 393 renal): > 10 µM
TGI (DU-145 prostate): > 10 µM
TGI (UACC-257 melanoma): > 10 µM
TGI (MOLT-4 leukemia): > 10 µM
TGI (NCI-H522 lung): > 10 µM
TGI (UO-31 renal): > 10 µM
TGI (OVCAR-4 ovarian): > 10 µM
TGI (KM12 colon): > 10 µM
TGI (BT-549 breast): > 10 µM
TGI (HCC-2998 colon): > 10 µM
TGI (K-562 leukemia): > 10 µM
TGI (SF-295 CNS): > 10 µM
TGI (NCI-H23 lung): > 10 µM
TGI (HCT-15 colon): > 10 µM
TGI (HOP-62 NSCLC): > 10 µM
TGI (M14 melanoma): > 10 µM
TGI (TK-10 renal): > 10 µM
TGI (SF-268 CNS): > 10 µM
TGI (MCF7 breast): > 10 µM
TGI (HL-60(TB) leukemia): > 10 µM
TGI (RPMI-8226 leukemia): > 10 µM
TGI (LOX IMVI melanoma): > 10 µM
TGI (EKVX NSCLC): > 10 µM
TGI (ACHN renal): > 10 µM
TGI (SR leukemia): > 10 µM
TGI (OVCAR-3 ovarian): > 10 µM
TGI (HT29 colon): > 10 µM
TGI (NCI/ADR-RES ovarian): > 10 µM
TGI (U251 CNS): > 10 µM
TGI (MDA-MB-231 breast): > 10 µM
TGI (OVCAR-8 ovarian): > 10 µM
TGI (NCI-H460 lung): > 10 µM
TGI (NCI-H226 lung): > 10 µM
TGI (CAKI-1 renal): > 10 µM
TGI (MDA-N): > 10 µM
TGI (OVCAR-5 ovarian): > 10 µM
TGI (SK-MEL-2 melanoma): > 10 µM
TGI (MALME-3M melanoma): > 10 µM
TGI (T-47D breast): > 10 µM
TGI (SNB-19 CNS): > 10 µM
TGI (CCRF-CEM leukemia): > 10 µM
TGI (SW-620 colon): > 10 µM
TGI (SN12C renal): > 10 µM
TGI (HOP-92 NSCLC): > 10 µM
TGI (PC-3 prostate): > 10 µM
TGI (786-0 renal): > 10 µM
TGI (MDA-MB-435): > 10 µM
TGI (COLO 205 colon): > 10 µM

CC(=O)OC1COC(n2nc(N)nc2C)C(OC(C)=O)C1OC(C)=O (stereo unspecified)
TGI (A549 NSCLC): > 100 µM
TGI (HCT-116 colon): > 100 µM
TGI (RXF 393 renal): > 100 µM
TGI (DU-145 prostate): > 100 µM
TGI (UACC-257 melanoma): > 100 µM
TGI (MOLT-4 leukemia): > 100 µM
TGI (NCI-H522 lung): > 100 µM
TGI (UO-31 renal): > 100 µM
TGI (SNB-75 CNS): > 100 µM
TGI (OVCAR-4 ovarian): > 100 µM
TGI (KM12 colon): > 100 µM
TGI (BT-549 breast): > 100 µM
TGI (HCC-2998 colon): > 100 µM
TGI (K-562 leukemia): > 100 µM
TGI (SF-295 CNS): > 100 µM
TGI (NCI-H23 lung): > 100 µM
TGI (HCT-15 colon): > 100 µM
TGI (HOP-62 NSCLC): > 100 µM
TGI (M14 melanoma): > 100 µM
TGI (IGROV1 ovarian): > 100 µM
TGI (TK-10 renal): > 100 µM
TGI (SF-268 CNS): > 100 µM
TGI (MCF7 breast): > 100 µM
TGI (HL-60(TB) leukemia): > 100 µM
TGI (RPMI-8226 leukemia): > 100 µM
TGI (LOX IMVI melanoma): > 100 µM
TGI (EKVX NSCLC): > 100 µM
TGI (ACHN renal): > 100 µM
TGI (OVCAR-3 ovarian): > 100 µM
TGI (SK-OV-3 ovarian): > 100 µM
TGI (HT29 colon): > 100 µM
TGI (NCI/ADR-RES ovarian): > 100 µM
TGI (U251 CNS): > 100 µM
TGI (MDA-MB-231 breast): > 100 µM
TGI (OVCAR-8 ovarian): > 100 µM
TGI (NCI-H460 lung): > 100 µM
TGI (NCI-H226 lung): > 100 µM
TGI (CAKI-1 renal): > 100 µM
TGI (UACC-62 melanoma): > 100 µM
TGI (MDA-N): > 100 µM
TGI (OVCAR-5 ovarian): > 100 µM
TGI (SK-MEL-2 melanoma): > 100 µM
TGI (MALME-3M melanoma): > 100 µM
TGI (T-47D breast): > 100 µM
TGI (SNB-19 CNS): > 100 µM
TGI (CCRF-CEM leukemia): > 100 µM
TGI (SW-620 colon): > 100 µM
TGI (A498 renal): > 100 µM
TGI (SK-MEL-5 melanoma): > 100 µM
TGI (SK-MEL-28 melanoma): > 100 µM
TGI (SN12C renal): > 100 µM
TGI (HOP-92 NSCLC): > 100 µM
TGI (PC-3 prostate): > 100 µM
TGI (786-0 renal): > 100 µM
TGI (MDA-MB-435): > 100 µM
TGI (COLO 205 colon): > 100 µM
